Results as given in article PMC9317966, “Structure-function analysis of the AMPK activator SC4 and identification of a potent pan AMPK activator” (Biochemical Journal, 2022).

How the values were obtained:
[1] = system: COS7 cells; test: Immunoblot of AMPK signalling in COS7 cells; format: cell-based; conditions: COS7, 2.5 µM, 1 h
Method: To evaluate the efficacy of MSG011 in cellulo, we incubated mouse primary hepatocytes with 2.5 µM MSG011 for 60 min and tracked changes in phosphorylation of AMPK α-Thr172 (marker of activation) and the AMPK substrate acetyl-CoA carboxylase (ACC) Ser79 (AMPK signalling marker).
HEK293T/17, HEK293T, COS7, HeLa and PC3 cells (ATCC) were maintained in Dulbecco's Modified Eagle's medium (DMEM; Sigma–Aldrich) supplemented with 10% fetal bovine serum (FBS; Assay Matrix) at 37°C and 5% CO2. Primary hepatocytes from wild type mice were prepared using the collagenase perfusion method and cultured as described previously. Cultures were incubated with fresh DMEM (no FBS) for 2 h prior to 1 h treatment with MSG011 (dissolved in DMSO) or phenformin (dissolved in H2O). Adherent HEK293T/17 cells at ∼50% confluency were triply transfected with AMPK α1 (pcDNA3.1 vector), β1 (COOH-terminal MYC fusion, pcDNA3.1 vector) and WT γ1 or γ1-R299G mutant (NH2-terminal HA fusion, pMT2 vector) in the presence of FuGENE HD transfection reagent (Promega) as per the manufacturers protocol. […]
All samples were separated on 12% SDS–PAGE gels and transferred to an Immobilon-FL PVDF membrane (Merck Millipore). […] Immunoblots were visualised on the Odyssey Infrared Imaging System (LI-COR Biosciences) and immunoreactive bands analysed and quantified using Image Studio Software (LI-COR Biosciences).

[2] = system: HEK293T cells; test: Adenylate energy charge by LC-MS in HEK293T cells; format: cell-based; conditions: MSG011 up to 40 µM, 1 h
Method: HEK293T cell cultures grown in six-well plates were gently washed in ice cold PBS, lysed with 150 µl of ice cold 0.5 M perchloric acid (Univar) and clarified by centrifugation (16 000g, 3 min, 4°C). An amount of 75 µl of clarified lysate was neutralised with 25 µl of ice cold 2.3 M KHCO3 (Sigma–Aldrich), incubated on ice for 5 min and then centrifuged (16 000g, 3 min, 4°C). Supernatants were collected for analysis by liquid chromatography mass spectrometry–mass spectrometry (LC–MS/MS).
Adenine nucleotide metabolites were measured by LC–MS/MS with modifications to our previously described method. A QTRAP 5500 mass spectrometer (AB Sciex) was operated with the turbo V ion source linked to Prominence UFLCXR LC-20ADXR pumps (Shimadzu), SIL-20AC HT autosampler (Shimadzu) and CTO-20A HPLC column oven (Shimadzu). Both LC and MS instruments were controlled and managed with the Analyst 1.7.1 software (AB Sciex). Nitrogen was provided by a Genius NM3G nitrogen gas generator (PEAK Scientific). […] Data was analysed with MultiQuant 3.0.2 software (AB Sciex) using area under the LC curve. Calibration curves were determined by linear regression of the peak area ratio of each nucleotide and were required to have a correlation coefficient (R^2) of >0.98. […] AEC was calculated from the ratios of [AMP], [ADP] and [ATP] […]

Compound: CC(=O)NC1CC=C(c2ccc(-c3nc4nc(Oc5ccc(C)c(C(=O)O)c5)[nH]c4cc3Cl)cc2)CC1 (centres unmarked) [MSG011, 5-((5-(4′-Acetamido-2′,3′,4′,5′-tetrahydro-[1,1′-biphenyl]-4-yl)-6-chloro-1H-imidazo[4,5-b]pyridin-2-yl)oxy)-2-methylbenzoic acid]
- AMPK signalling (phosphorylation of ACC-Ser79 and raptor-Ser792) [1]: at levels comparable to extreme energy stress
- adenylate energy charge (AEC) [2]: unaffected
